Measured values as given in patent publication US9295732B2, “Conjugated TLR7 and/or TLR8 and TLR2 polycationic agonists” (CAYLA, priority 2013, dated 2016).
Each block holds one compound with its values, some of them ahead of it.

Legend:
plasmid DNA (pDNA) = test: Gel shift (mobility shift) assay of pDNA complexation; format: binding; settings: pDNA:molecule ratio 3:24 (w:w), 0.8% agarose gel, compared to pDNA alone
How it was run: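 Complexes of pDNA with TLR7-TLR2 polyamine molecules run on 0.8% agarose in TAE at 135 V for 21 min, ethidium bromide stained and viewed under UV. Complexation scored as partial or complete retardation of pDNA migration versus pDNA alone, complexed pDNA appearing as a smear in wells.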

human TLR2 = target: T1, human TLR2 (Homo sapiens, UniProt O60603); test: HEK-Blue hTLR2 NF-κB/AP-1 SEAP reporter assay; format: cell-based; settings: HEK-Blue hTLR2 cells, 10 μg/mL to 10 pg/ml, 24 hours, OD at 655 nm, FIG. 3
T1 construct: host or cells: HEK293 (HEK-Blue™ hTLR2)
How it was run: (§1)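 HEK293 cells stably expressing the given TLR, or RAW 264.7-derived cells (50,000 or 100,000 cells/well respectively), carry an NF-κB/AP-1-inducible SEAP reporter. Conjugated TLR7-TLR2 agonists at final 10 μg/mL to 10 pg/ml, 24 h at 37° C. SEAP read colorimetrically as OD at 655 nm in detection medium.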

human TLR7 = target: T2, human TLR7 (Homo sapiens, UniProt Q9NYK1); test: HEK-Blue hTLR7 NF-κB/AP-1 SEAP reporter assay; format: cell-based; settings: HEK-Blue hTLR7 cells, 10 μg/mL to 10 pg/ml, 24 hours, OD at 655 nm, FIG. 1
T2 construct: host or cells: HEK293 (HEK-Blue™ hTLR7)
T2 sequence (Q9NYK1 27-1049): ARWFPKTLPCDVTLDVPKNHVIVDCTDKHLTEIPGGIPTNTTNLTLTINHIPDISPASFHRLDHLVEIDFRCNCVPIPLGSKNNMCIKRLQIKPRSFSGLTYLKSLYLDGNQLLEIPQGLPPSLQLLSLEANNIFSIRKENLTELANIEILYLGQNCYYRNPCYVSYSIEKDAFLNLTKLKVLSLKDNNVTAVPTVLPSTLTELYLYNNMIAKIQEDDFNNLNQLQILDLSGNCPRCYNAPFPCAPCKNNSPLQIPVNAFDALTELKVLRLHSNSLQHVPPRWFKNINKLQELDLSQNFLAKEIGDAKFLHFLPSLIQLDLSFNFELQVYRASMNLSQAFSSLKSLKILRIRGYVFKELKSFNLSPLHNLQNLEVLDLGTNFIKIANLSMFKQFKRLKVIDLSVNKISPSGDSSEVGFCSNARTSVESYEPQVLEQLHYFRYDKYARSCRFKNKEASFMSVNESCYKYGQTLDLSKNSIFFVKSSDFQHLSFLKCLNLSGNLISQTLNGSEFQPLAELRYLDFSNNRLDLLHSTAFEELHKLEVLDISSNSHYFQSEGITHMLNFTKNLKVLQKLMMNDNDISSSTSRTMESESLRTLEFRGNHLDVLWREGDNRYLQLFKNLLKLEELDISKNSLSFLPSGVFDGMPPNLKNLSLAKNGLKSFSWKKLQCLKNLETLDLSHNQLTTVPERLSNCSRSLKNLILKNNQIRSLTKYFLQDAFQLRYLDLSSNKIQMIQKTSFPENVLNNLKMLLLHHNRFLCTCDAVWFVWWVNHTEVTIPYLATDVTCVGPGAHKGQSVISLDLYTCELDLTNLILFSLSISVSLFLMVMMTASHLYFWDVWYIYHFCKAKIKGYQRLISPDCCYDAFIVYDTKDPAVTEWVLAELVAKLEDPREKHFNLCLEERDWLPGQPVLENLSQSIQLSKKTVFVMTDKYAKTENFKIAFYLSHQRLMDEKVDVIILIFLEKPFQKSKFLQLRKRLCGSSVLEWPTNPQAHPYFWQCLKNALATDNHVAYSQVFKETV
How it was run: as §1

T1 sequence (O60603 21-784): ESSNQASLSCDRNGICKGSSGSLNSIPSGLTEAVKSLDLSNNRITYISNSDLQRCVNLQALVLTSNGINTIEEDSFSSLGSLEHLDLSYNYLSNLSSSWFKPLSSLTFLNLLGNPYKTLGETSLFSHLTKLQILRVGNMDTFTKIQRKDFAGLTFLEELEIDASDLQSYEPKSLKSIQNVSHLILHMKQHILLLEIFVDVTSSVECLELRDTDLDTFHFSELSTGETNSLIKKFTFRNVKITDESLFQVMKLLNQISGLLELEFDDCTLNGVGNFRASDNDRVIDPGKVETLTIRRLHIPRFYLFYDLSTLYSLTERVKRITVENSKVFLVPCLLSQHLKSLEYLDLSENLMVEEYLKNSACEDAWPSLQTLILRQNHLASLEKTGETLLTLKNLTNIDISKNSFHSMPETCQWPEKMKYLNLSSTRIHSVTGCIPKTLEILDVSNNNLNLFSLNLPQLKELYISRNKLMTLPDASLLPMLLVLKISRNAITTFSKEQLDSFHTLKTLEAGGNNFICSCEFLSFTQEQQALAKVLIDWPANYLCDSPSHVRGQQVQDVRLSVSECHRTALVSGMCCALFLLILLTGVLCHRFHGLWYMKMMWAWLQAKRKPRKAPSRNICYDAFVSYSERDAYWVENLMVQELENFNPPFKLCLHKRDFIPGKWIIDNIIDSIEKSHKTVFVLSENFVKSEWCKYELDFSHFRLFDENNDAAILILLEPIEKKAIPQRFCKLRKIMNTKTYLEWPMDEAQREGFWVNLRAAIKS

Compound: CCCCCCCCCCCCCCCC(=O)OCC(CSC[C@H](N)C(=O)N[C@@H](COC(=O)c1ccc(Cn2c(O)nc3c(N)nc(NCCCC)nc32)cc1)C(=O)NCCCNCCCCNCCCN)OC(=O)CCCCCCCCCCCCCCC (stereo partly drawn) [CL514, (6R,9S)-6,23-diamino-9-((4-((6-amino-2-(butylamino)-8-hydroxy-9H-purin-9-yl)methyl)benzoyloxy)methyl)-7,10-dioxo-4-thia-8,11,15,20-tetraazatricosane-1,2-diyl dipalmitate]
ability to complex pDNA (retardation of pDNA migration in agarose gel) (plasmid DNA (pDNA)): inability to migrate through an agarose gel | ability to activate hTLR2 (human TLR2): activate hTLR2 | ability to activate hTLR7 (human TLR7): activate hTLR7

Compound: CCCCCCCCCCCCCCCC(=O)N[C@@H](CSCC(COC(=O)CCCCCCCCCCCCCCC)OC(=O)CCCCCCCCCCCCCCC)C(=O)N[C@@H](CO)C(=O)N[C@@H](CCCCN)C(=O)N[C@@H](CCCCN)C(=O)N[C@@H](CCCCN)C(=O)N[C@@H](CCCCN)C(=O)Nc1ccc(Cn2c(O)nc3c(N)nc(NCCCC)nc32)cc1 (stereo partly drawn) [CL534, ((6R,9S,12S,15S,18S,21S)-25-amino-21-(4-((6-amino-2-(butylamino)-8-hydroxy-9H-purin-9-yl)methyl)phenylcarbamoyl)-12,15,18-tris(4-aminobutyl)-9-(hydroxylmethyl)-7,10,13,16,19-pentaoxo-6-palmitamido-4-thia-8,11,14,17,20-pentaazapentacosane-1,2-diyl dipalmitate]
ability to complex pDNA (retardation of pDNA migration in agarose gel) (plasmid DNA (pDNA)): inability to migrate through an agarose gel | ability to activate hTLR2 (human TLR2): activate hTLR2 | ability to activate hTLR7 (human TLR7): activate hTLR7

Compound: (6S,9S,12S,15S,18S,21R)-6,25-diamino-21-(4-((6-amino-2-(butylamino)-8-hydroxy-9H-purin-9-yl)methyl)phenylcarbamoyl)-12,15,18-tris(4-aminobutyl)-9-(hydroxyl methyl)-7,10,13,16,19-pentaoxo-4-thia-8,11,14,17,20-pentaazapentacosane-1,2-diyl dipalmitate [CL413]
ability to complex pDNA (retardation of pDNA migration in agarose gel) (plasmid DNA (pDNA)): inability to migrate through an agarose gel | ability to activate hTLR2 (human TLR2): activate hTLR2 | ability to activate hTLR7 (human TLR7): activate hTLR7

Now from value to compound, other results behind:

ability to activate hTLR2 (human TLR2): activate hTLR2 | ability to activate hTLR7 (human TLR7): activate hTLR7
Compound: CCCCCCCCCCCCCCCC(=O)OCC(CSC[C@H](N)C(=O)N[C@@H](CCC(=O)NCCCNCCCCNCCCN)C(=O)Nc1ccc(Cn2c(O)nc3c(N)nc(NCCCC)nc32)cc1)OC(=O)CCCCCCCCCCCCCCC (stereo partly drawn) [CL527, (6R,9S)-6,25-diamino-9-(4-((6-amino-2-(butylamino)-8-hydroxy-9H-purin-9-yl)methyl)phenylcarbamoyl)-7,12-dioxo-4-thia-8,13,17,22-tetraazapentacosane-1,2-diyl dipalmitate]
ability to complex pDNA (retardation of pDNA migration in agarose gel) (plasmid DNA (pDNA)): inability to migrate through an agarose gel

ability to activate hTLR2 (human TLR2): activate hTLR2 | ability to activate hTLR7 (human TLR7): activate hTLR7
Compound: CCCCCCCCCCCCCCCC(=O)OCC(CSC[C@H](N)C(=O)NCCCNCCCCNCCCNC(=O)CNC(=O)c1ccc(Cn2c(O)nc3c(N)nc(NCCCC)nc32)cc1)OC(=O)CCCCCCCCCCCCCCC (stereo partly drawn) [CL553, (20R)-20-amino-1-(4-((6-amino-2-(butylamino)-8-hydroxy-9H-purin-9-yl)methyl)phenyl)-1,4,19-trioxo-22-thia-2,5,9,14,18-pentaazapentacosane-24,25-diyl dipalmitate]
ability to complex pDNA (retardation of pDNA migration in agarose gel) (plasmid DNA (pDNA)): inability to migrate through an agarose gel
